Measured values reported in patent US6939554B2, “Antimicrobial polymer” (Michigan Biotechnology Institute, priority 2002, dated 2005).

Test system: potential human pathogenic microorganisms
Assay: Antimicrobial activity assay, overall assessment across target microorganisms
Assay type: cell-based
Conditions: among the seven antimicrobials tested, in the polymer coatings
Experimental: The selection of target microorganisms for examining the antimicrobial activity of the coated polydimethylsiloxane substrates produced in the Control Example and Examples 1-16 was based on the potential human pathogenic microorganisms, which include gram positive bacteria, Bacillus subtilis and Staphylococcus aureus; gram negative bacteria, E. coli and Pseudomonas aeruginosa; and yeast, Candida albicans. Broth cultures were prepared for each microorganism. Bacteria, Bacillus subtilis, Staphylococcus aureus, E. coli and Pseudomonas aeruginosa were grown in 50 milliliters of sterile tryptic soy broth in a 500 milliliter baffle flask at 200 rpm. The cultures were grown at 37° C. overnight, and used for antimicrobial activity assay plates and stock culture. The yeast, Candida albicans was cultivated in 50 milliliters of sterile yeast malt broth in a 250 milliliter baffle flask at 25-28° C. for 1 day and used for the activity assay plates and stock culture.
Antimicrobial activity assay plates were then prepared. Yeast malt agar and tryptic soy agar were autoclaved for 20 minutes. The sterile molten agar was allowed to cool to 42-45° C. The prepared broth cultures of the target microorganisms were inoculated to a final concentration of 5% (v/v). […]

[H]/N=C(\N/C(=N/[H])NCCCCCCNC(=N)NC(=N)Nc1ccc(Cl)cc1)Nc1ccc(Cl)cc1 [chlorhexidine, 1,6-bi(N^5-p-chlorophenyl-N^1-biguanido)hexane]
Antimicrobial activity: ability to suppress the colonization and spectrum of action (in words): high activity
